Values of other authors in US20050276865A1, “Peroxide compounds for the prevention and treatment of sexual dysfunction in humans” (priority 2004, published 2005).

Experiments:
[1] = not given; remark: listed apart in the source
men with ED = settings: injection into the corpus cavernosum (Montorsi et al. 1997)

| Structure (SMILES) | Irritancy as reported (NTF Chemical Repository) | Toxicity and carcinogenicity concerns (according to many studies (Haywood et al. 1991)) | Solubility in water [1] | Stability in aqueous medium ([1]; aqueous medium) | Men who achieved improved spontaneous erections and required less frequent injections (men with ED) [%] |
| --- | --- | --- | --- | --- | --- |
| NC(N)=O.OO [Carbamide peroxide, carbamide peroxide] | irritant | unfounded | water-soluble | highly unstable |  |
| CCCCC[C@H](O)/C=C/[C@H]1[C@H](O)CC(=O)[C@@H]1CCCCCCC(=O)O [prostaglandin E1] |  |  |  |  | 28 |
